Read-outs that look alike come from different tables or passages of the source.
Tests used:
[1] = molecular target: T1, EGFR[T790M/C797S/d746-750] (Homo sapiens, UniProt P00533, C797S/DEL746-750/T790M); assay: Inhibition of EGFR[T790M/C797S/d746-750] biochemical enzymatic activity (HTRF); settings: EGFR T790M-C797S-Del19, 1 mM ATP, 1 h, room temperature, read-out: IC50 (nM) @T790M - C797S - Del19
T1 construct: purchased Carna Bio
Summary of the method: (§1)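 Following 1 h at room temperature with titrated compound, 1 mM ATP and 1 μM biotin-TK peptide (Mg2+/Mn2+, CHAPS, DTT, 0.5% DMSO buffer), EDTA-containing detection reagent terminated each enzyme reaction. Time-resolved fluorescence (ex 320, em 665/615 nm) ratio tracked activity. IC50 values came from four-parameter fits.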

EGFR[T790M/C797S/L858R] = molecular target: T2, EGFR[T790M/C797S/L858R] (Homo sapiens, UniProt P00533, C797S/L858R/T790M); assay: Inhibition of EGFR[T790M/C797S/L858R] biochemical enzymatic activity (HTRF); settings: EGFR T790M-C797S-L858R, 1 mM ATP, 1 h, room temperature, read-out: IC50 (nM) @T790M- C797S - L858R
T2 construct: purchased Carna Bio
Summary of the method: as §1

EGFR L858R = molecular target: T3, EGFR L858R (Homo sapiens, UniProt P00533, L858R); assay: Inhibition of EGFR L858R biochemical enzymatic activity (HTRF); settings: 1 mM ATP, 1 h, room temperature, read-out: IC50 (nM) @L858R
T3 construct: purchased Carna Bio
Summary of the method: as §1

EGFR Exon19Del/T790M = molecular target: T4, EGFR Exon19Del/T790M (Homo sapiens, UniProt P00533, DEL746-750/T790M); assay: Inhibition of EGFR Exon19Del/T790M biochemical enzymatic activity (HTRF); settings: EGFR Del19-T790M, 1 mM ATP, 1 h, room temperature, read-out: IC50 (nM) @Del19-T790M
T4 construct: purchased Carna Bio
T4 sequence (P00533 with tags, fused parts or gaps DEL746-750/T790M limits assumed): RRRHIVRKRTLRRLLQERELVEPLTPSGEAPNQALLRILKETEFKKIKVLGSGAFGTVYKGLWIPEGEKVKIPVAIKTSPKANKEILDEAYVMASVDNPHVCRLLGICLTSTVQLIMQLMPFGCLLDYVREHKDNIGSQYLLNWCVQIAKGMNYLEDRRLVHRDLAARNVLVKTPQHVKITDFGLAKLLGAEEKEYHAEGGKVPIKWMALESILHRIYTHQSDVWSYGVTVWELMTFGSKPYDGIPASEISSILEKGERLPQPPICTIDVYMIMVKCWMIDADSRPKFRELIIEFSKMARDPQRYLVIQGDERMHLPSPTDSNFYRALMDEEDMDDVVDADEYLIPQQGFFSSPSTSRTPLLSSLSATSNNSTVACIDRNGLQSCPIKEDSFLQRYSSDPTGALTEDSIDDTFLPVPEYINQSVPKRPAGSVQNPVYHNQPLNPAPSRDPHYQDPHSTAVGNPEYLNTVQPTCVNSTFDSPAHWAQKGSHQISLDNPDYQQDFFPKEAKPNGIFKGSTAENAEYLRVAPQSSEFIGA
Summary of the method: as §1

EGFR (d746-750 C797S) = molecular target: T5, EGFR (d746-750 C797S) (Homo sapiens, UniProt P00533, C797S/DEL746-750); assay: Inhibition of EGFR (d746-750 C797S) biochemical enzymatic activity (HTRF); settings: EGFR Del19-C797S, 1 mM ATP, 1 h, room temperature, read-out: IC50 (nM) @Del19-C797S
T5 construct: purchased signalchem
T5 sequence (P00533 with tags, fused parts or gaps DEL746-750/C797S limits assumed): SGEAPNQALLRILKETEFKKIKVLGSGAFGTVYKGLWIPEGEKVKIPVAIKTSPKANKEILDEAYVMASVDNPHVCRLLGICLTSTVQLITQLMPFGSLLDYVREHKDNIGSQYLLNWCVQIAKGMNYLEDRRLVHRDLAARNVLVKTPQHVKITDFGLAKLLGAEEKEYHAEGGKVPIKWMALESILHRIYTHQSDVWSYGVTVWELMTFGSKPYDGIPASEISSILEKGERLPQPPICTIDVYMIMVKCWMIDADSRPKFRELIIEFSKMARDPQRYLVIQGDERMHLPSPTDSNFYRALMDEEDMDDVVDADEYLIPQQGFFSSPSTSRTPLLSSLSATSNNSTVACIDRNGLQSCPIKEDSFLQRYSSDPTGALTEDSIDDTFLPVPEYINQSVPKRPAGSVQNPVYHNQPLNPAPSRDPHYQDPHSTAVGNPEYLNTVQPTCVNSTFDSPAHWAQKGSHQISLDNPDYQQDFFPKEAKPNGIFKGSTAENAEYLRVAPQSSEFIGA
Summary of the method: as §1

A-431 = assay: Cell proliferation GI50, A-431 cells (Table 6); assay type: cell-based
EGFR L858R/T790M = molecular target: T6, EGFR L858R/T790M (Homo sapiens, UniProt P00533, L858R/T790M); assay: Inhibition of EGFR L858R/T790M biochemical enzymatic activity (HTRF); settings: EGFR L858R-T790M, 1 mM ATP, 1 h, room temperature, read-out: IC50 (nM) @L858R-T790M
T6 construct: purchased Carna Bio
T6 sequence (P00533 25-1210 T790M/L858R): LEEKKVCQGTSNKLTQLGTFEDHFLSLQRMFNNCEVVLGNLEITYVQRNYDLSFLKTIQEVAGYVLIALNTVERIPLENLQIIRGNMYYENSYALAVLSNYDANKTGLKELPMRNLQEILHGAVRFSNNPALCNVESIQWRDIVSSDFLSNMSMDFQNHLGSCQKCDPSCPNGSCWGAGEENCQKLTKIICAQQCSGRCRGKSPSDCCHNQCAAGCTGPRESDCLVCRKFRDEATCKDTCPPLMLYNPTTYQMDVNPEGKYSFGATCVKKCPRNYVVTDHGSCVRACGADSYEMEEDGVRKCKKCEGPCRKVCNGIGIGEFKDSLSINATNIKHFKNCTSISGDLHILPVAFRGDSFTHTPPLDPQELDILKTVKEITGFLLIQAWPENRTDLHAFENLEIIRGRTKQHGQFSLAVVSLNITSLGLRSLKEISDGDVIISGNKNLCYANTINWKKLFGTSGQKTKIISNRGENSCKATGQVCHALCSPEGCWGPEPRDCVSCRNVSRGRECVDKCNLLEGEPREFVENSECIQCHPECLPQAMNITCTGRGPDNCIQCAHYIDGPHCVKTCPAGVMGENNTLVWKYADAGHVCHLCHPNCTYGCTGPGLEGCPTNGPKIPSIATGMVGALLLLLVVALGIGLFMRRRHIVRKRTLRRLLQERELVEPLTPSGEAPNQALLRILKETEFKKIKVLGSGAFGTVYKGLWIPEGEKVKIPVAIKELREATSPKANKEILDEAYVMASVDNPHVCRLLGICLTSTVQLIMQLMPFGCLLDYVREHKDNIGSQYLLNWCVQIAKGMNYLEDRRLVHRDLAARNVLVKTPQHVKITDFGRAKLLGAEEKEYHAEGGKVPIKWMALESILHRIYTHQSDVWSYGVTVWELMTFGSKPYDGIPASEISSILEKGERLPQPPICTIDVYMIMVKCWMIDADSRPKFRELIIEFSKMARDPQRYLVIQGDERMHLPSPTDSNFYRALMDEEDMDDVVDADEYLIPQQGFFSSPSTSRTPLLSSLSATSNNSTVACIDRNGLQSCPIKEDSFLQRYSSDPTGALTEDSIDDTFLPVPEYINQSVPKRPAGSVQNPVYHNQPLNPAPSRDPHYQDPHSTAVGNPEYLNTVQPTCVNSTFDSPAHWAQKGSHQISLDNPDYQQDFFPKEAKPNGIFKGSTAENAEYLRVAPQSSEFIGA
Summary of the method: as §1

EGFR Exon19Del = molecular target: T7, EGFR Exon19Del (Homo sapiens, UniProt P00533, DEL746-750); assay: Inhibition of EGFR Exon19Del biochemical enzymatic activity (HTRF); settings: EGFR Del19, 1 mM ATP, 1 h, room temperature, read-out: IC50 @Del19
T7 construct: purchased Carna Bio
T7 sequence (P00533 with tags, fused parts or gaps DEL746-750 limits assumed): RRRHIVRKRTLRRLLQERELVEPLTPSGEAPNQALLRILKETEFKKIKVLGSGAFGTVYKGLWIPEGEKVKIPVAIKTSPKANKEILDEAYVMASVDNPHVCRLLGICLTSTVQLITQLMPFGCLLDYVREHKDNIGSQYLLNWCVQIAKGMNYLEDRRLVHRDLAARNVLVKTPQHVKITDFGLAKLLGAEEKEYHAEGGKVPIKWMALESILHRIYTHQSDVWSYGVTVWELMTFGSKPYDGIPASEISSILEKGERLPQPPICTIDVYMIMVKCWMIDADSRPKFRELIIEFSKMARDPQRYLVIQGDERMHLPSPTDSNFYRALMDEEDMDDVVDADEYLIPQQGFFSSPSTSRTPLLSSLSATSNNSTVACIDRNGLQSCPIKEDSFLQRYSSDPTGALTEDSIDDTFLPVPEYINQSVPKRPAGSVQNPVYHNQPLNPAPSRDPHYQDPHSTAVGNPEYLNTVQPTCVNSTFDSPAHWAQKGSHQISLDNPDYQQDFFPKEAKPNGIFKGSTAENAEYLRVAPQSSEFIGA
Summary of the method: as §1

EGFR wild type = molecular target: T8, EGFR wild type (Homo sapiens, UniProt P00533); assay: Inhibition of EGFR wild type biochemical enzymatic activity (HTRF); settings: EGFR WT, 1 mM ATP, 1 h, room temperature, read-out: IC50 (nM) @WT
T8 construct: purchased Carna Bio
Summary of the method: as §1

PC-9 = assay: Cell proliferation assay, PC-9 cells (CellTiter-Glo, 72 hours); assay type: cell-based; settings: PC9 cells, CellTiter-Glo, read-out: PC9 GI50
Summary of the method: (§2)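 Luminescent viable-cell counts were taken on a day 0 plate at dosing and again at endpoint. Proliferation was calculated as (sample − G0)/(DMSO − G0). Seeding was 5000 Ba/F3 or 500 PC-9 cells per well in RPMI1640, followed by overnight attachment and serial compound dilutions. The GI50 was fitted.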

[2] = system: Ba/F3 cells expressing EGFR mutations; assay: Cell proliferation assay, Ba/F3 cells expressing EGFR mutations (CellTiter-Glo, 72 hours); assay type: cell-based; settings: CellTiter-Glo
Summary of the method: as §2

EGFR (C797S L858R) = molecular target: T9, EGFR (C797S L858R) (Homo sapiens, UniProt P00533, C797S/L858R); assay: Inhibition of EGFR (C797S L858R) biochemical enzymatic activity (HTRF); settings: EGFR L858-C797S, 1 mM ATP, 1 h, room temperature, read-out: IC50 (nM) @L858-C797S
T9 construct: purchased signalchem
T9 sequence (P00533 25-1210 C797S/L858R): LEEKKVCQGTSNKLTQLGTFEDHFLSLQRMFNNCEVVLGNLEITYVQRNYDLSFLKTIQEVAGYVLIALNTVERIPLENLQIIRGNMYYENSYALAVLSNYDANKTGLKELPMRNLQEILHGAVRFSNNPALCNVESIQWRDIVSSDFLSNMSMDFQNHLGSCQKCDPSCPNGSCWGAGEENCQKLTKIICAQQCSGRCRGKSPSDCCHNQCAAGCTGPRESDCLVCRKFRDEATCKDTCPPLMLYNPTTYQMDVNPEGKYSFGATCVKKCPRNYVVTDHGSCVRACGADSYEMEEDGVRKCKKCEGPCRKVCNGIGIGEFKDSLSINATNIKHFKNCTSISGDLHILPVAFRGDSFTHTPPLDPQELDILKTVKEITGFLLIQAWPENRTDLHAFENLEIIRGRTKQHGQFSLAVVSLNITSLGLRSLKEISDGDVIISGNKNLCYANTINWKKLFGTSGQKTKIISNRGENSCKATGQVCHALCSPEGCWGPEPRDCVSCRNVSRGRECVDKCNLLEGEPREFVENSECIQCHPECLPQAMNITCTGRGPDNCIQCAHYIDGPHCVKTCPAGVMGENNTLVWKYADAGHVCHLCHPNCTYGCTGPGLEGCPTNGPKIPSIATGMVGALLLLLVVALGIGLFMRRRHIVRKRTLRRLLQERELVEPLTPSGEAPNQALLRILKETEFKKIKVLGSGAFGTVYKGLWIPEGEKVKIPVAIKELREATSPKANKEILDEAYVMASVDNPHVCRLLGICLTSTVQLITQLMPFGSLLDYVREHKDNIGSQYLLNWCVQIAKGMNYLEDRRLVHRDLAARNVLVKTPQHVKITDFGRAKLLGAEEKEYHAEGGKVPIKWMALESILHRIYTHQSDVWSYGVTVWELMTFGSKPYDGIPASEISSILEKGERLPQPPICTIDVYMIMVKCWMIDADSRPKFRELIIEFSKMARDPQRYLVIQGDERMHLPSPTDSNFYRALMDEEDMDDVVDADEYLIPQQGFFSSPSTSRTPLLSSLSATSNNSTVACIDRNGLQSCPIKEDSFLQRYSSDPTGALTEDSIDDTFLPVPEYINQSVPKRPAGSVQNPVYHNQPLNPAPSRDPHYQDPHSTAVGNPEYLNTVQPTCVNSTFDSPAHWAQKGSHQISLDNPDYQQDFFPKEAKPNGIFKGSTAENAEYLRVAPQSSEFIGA
Summary of the method: as §1

[3] = BaF3 cells, EGFR DEL19-C797S, read-out: DEL19-C797S/BaF3 GI50
[4] = BaF3 cells, EGFR DEL19-T790-C797S, read-out: DEL19-T790-C797S/BaF3 GI50
[5] = BaF3 cells, EGFR L858R, read-out: L858R/BaF3 GI50
[6] = BaF3 cells, EGFR L858R-C797S, read-out: L858R-C797S/BaF3 GI50
[7] = BaF3 cells, EGFR L858R-T790-C797S, read-out: L858R-T790-C797S/BaF3 GI50
[8] = BaF3 cells, EGFR L858R-T790M, read-out: L858R-T790M/BaF3 GI50
[9] = EGFR DEL19-T790M, read-out: DEL19-T790M GI50
[10] = Homo sapiens, A-431, A-431 cells
[11] = Mus musculus, BaF3, 72 h, BaF3 cells, EGFR DEL19-C797S, read-out: DEL19-C797S/BaF3 GI50
[12] = Mus musculus, BaF3, 72 h, BaF3 cells, EGFR DEL19-T790-C797S, read-out: DEL19-T790-C797S/BaF3 GI50
[13] = Mus musculus, BaF3, 72 h, BaF3 cells, EGFR L858R, read-out: L858R/BaF3 GI50
[14] = Mus musculus, BaF3, 72 h, BaF3 cells, EGFR L858R-C797S, read-out: L858R-C797S/BaF3 GI50
[15] = Mus musculus, BaF3, 72 h, BaF3 cells, EGFR L858R-T790-C797S, read-out: L858R-T790-C797S/BaF3 GI50
[16] = Mus musculus, BaF3, 72 h, BaF3 cells, EGFR L858R-T790M, read-out: L858R-T790M/BaF3 GI50
[17] = Mus musculus, BaF3, 72 h, EGFR DEL19-T790M, read-out: DEL19-T790M GI50

T1 sequence (P00533 with tags, fused parts or gaps DEL746-750/T790M/C797S limits assumed): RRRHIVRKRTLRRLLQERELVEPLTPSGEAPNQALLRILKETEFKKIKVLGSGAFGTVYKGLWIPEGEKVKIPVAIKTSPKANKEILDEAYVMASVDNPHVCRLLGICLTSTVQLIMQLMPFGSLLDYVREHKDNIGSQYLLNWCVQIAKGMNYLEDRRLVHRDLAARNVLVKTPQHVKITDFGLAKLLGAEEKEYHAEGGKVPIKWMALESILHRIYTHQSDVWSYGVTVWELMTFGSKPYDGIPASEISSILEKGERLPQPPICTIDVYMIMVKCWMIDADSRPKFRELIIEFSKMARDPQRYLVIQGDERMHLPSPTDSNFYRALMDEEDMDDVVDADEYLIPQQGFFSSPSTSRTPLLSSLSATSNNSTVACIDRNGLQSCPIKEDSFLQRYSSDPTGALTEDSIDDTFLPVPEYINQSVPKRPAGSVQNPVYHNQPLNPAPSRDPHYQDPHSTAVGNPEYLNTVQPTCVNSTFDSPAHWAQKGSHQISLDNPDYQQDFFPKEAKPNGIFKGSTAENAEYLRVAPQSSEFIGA

Compound	IC50 [1]	IC50 (EGFR[T790M/C797S/L858R])	IC50 (EGFR L858R)	IC50 (EGFR Exon19Del/T790M)	IC50 (EGFR (d746-750 C797S))	GI50 (A-431; A-431 cells)	IC50 (EGFR L858R/T790M)	IC50 (EGFR Exon19Del)	IC50 (EGFR wild type)	GI50 (PC-9)	GI50 [2, 3]	GI50 [2, 4]	GI50 [2, 5]	GI50 [2, 6]	GI50 [2, 7]	GI50 [2, 8]	GI50 [2, 9]	IC50 (EGFR (C797S L858R))	GI50 (A-431; [10])	GI50 (PC-9; Homo sapiens, PC-9, 72 h)	other results
CN1CCN(C2CCN(c3ccc4nc5n(c4c3)C34CCC(CN(CCOc6c(cnn6C)-c6cc(cn(C)c6=O)C(=O)N5)C3)C4)CC2)CC1 (single isomer, unassigned) [Example A106B]	2 nM	1.4 nM	1.8 nM	2.2 nM	1 nM	732 nM	2.2 nM	1.2 nM	4.1 nM	7.6 nM	0.79 nM	1.4 nM	1.1 nM	2.2 nM	3 nM	1.1 nM	1.9 nM	2.2 nM	–	–	–
CCC1CCCOc2c(cnn2C)-c2cc(cn(C)c2=O)C(=O)Nc2nc3ccc(N4CCN(C)CC4)cc3n2C1 (single isomer, unassigned) [Example A16B, 11-Ethyl-5,26-dimethyl-16-(4-methylpiperazin-1-yl)-7-oxa-4,5,13,20,22,26-hexaazapentacyclo[22.3.1.0^{2,6}.0^{13,21}.0^{14,19}]octacosa-1(28),2(6),3,14,16,18,20,24-octaene-23,27-dione]	10 nM	14 nM	28 nM	12 nM	3.2 nM	664 nM	22 nM	5.5 nM	288 nM	73 nM	5.2 nM	24 nM	21 nM	19 nM	17 nM	53 nM	29 nM	16 nM	–	–	–
CN1CCC2(C1)CN(c1ccc3nc4n(c3c1)C13CCC(CN(CCOc5c(cnn5C)-c5cc(cn(C)c5=O)C(=O)N4)C1)C3)C2 (single isomer, unassigned) [Example A78B]	1.6 nM	1.4 nM	2.4 nM	2.7 nM	0.91 nM	434 nM	2.4 nM	1.2 nM	11 nM	2.4 nM	0.51 nM	0.82 nM	0.87 nM	0.74 nM	0.9 nM	1 nM	0.75 nM	2.2 nM	–	–	–
Cn1ncc2c1OCCN1CCCC(C)(C1)n1c(nc3ccc(N4CCOCC4)cc31)NC(=O)c1cc-2c(=O)n(C)c1 (stereo not drawn) [Example A10, 1,15,21-trimethyl-5-(morpholin-4-yl)-23-oxa-2,9,11,15,20,21,26-heptaazahexacyclo[24.3.1.1^{13,17}.0^{2,10}.0^{3,8}.0^{18,22}]hentriaconta-3,5,7,9,13,17(31),18(22),19-octaene-12,16-dione]	166 nM	4400 nM	2150 nM	164 nM	173 nM	–	2630 nM	189 nM	> 5000 nM	–	–	–	–	–	–	–	–	1950 nM	5140 nM	128 nM	GI50 [2, 11]: 33 nM; GI50 [2, 12]: 368 nM; GI50 [2, 13]: 309 nM; GI50 [2, 14]: 291 nM; GI50 [2, 15]: 260 nM; GI50 [2, 16]: 219 nM; GI50 [2, 17]: 323 nM
C[C@@H]1CCCOc2c(cnn2C)-c2cc(cn(C)c2=O)C(=O)Nc2nc3ccc(N4CCC(N(C)C)C(F)C4)cc3n2C1 (stereo partly drawn) [Example A38]	1.7 nM	1.7 nM	9.7 nM	1.6 nM	0.81 nM	–	2.7 nM	1.3 nM	159 nM	–	–	–	–	–	–	–	–	2.9 nM	315 nM	6.2 nM	GI50 [2, 11]: 1.4 nM; GI50 [2, 12]: 4.8 nM; GI50 [2, 13]: 4.1 nM; GI50 [2, 14]: 4.2 nM; GI50 [2, 15]: 3.2 nM; GI50 [2, 16]: 13 nM; GI50 [2, 17]: 7.3 nM
Cn1ncc2c1OCCN1CC3CCC(C3)(C1)n1c(nc3ccc(N4CCC(N5CC(F)C5)C4)cc31)NC(=O)c1cc-2c(=O)n(C)c1 (single isomer, unassigned) [Example A94B2, 5-[3-(3-Fluoroazetidin-1-yl)pyrrolidin-1-yl]-15,21-dimethyl-23-oxa-2,9,11,15,20,21,26-heptaazaheptacyclo[24.4.1.1^{1,28}.1^{13,17}.0^{2,10}.0^{3,8}.0^{18,22}]tritriaconta-3,5,7,9,13,17(33),18(22),19-octaene-12,16-dione]	5.2 nM	9.7 nM	45 nM	6.3 nM	4.5 nM	1980 nM	9.7 nM	8.9 nM	289 nM	30 nM	0.77 nM	8.5 nM	3.3 nM	7.2 nM	5.4 nM	14 nM	5 nM	30 nM	–	–	–
C[C@@H]1CCCOc2c(cnn2C)-c2cc(cn(C)c2=O)C(=O)Nc2nc3ccc(N4CC(F)(CN(C)C)C4)cc3n2C1 [Example A58]	15 nM	22 nM	26 nM	16 nM	4.9 nM	–	34 nM	9.2 nM	220 nM	–	–	–	–	–	–	–	–	19 nM	1750 nM	325 nM	GI50 [2, 11]: 2 nM; GI50 [2, 12]: 28 nM; GI50 [2, 13]: 29 nM; GI50 [2, 14]: 20 nM; GI50 [2, 15]: 37 nM; GI50 [2, 16]: 20 nM; GI50 [2, 17]: 20 nM
CN1CCC2(CC1)CCN(c1ccc3nc4n(c3c1)C13CCC(CN(CCOc5c(cnn5C)-c5cc(cn(C)c5=O)C(=O)N4)C1)C3)C2 (single isomer, unassigned) [Example A88B]	4.6 nM	2.8 nM	4.8 nM	4.9 nM	2.2 nM	2200 nM	4.9 nM	2.5 nM	12 nM	21 nM	0.63 nM	1 nM	0.84 nM	3.4 nM	1.7 nM	8.8 nM	1 nM	4.2 nM	–	–	–

From US20260365670A1, “EGFR INHIBITORS AND USES THEREOF” (DIZAL (JIANGSU) PHARMACEUTICAL CO., LTD., priority 2022, published 2026)
